# Data: patent US10414811B2, “Protease-resistant lipidated GLP-1 analogs” (MEDIMMUNE LIMITED, priority 2015, dated 2019)
# Like-named read-outs stand apart in the source and are kept apart here. Numbered stars: 1 amine (or outer) side, 2 acyl side, 3 side chain; on linkers, the order of the positions; unused ones are H or OH. Square brackets hold non-standard residues; d marks the D form. Side chains are listed from the residue outwards. Peptide text beside a SMILES is read from it. * marks the point of attachment. γGlu = O=C(O)[C@H](CCC(=O)[*:2])N[*:1]; αMeF = C[C@](N)(Cc1ccccc1)C(=O)O; αMeK = C[C@](N)(CCCCN)C(=O)O; Lauroyl = CCCCCCCCCCCC(=O)*; AEEA = NCCOCCOCC(=O)O; Aib = CC(C)(N)C(=O)O
# Columns and labels:
# Format in all cases: cell-based
# [1] = target: T1, human glucagon receptor (GCGR) (Homo sapiens, UniProt P47871); experiment: cAMP assay, human GCGR cells; conditions: cAMP assay
# T1 construct: expressed in transfected cells
# Procedure: (§1) Sample dilutions are made in duplicate.
# (§2) A frozen cryo-vial of cells expressing the receptor of interest is thawed rapidly in a water-bath, transferred to pre-warmed assay buffer and spun at 240×g for 5 minutes. Cells are re-suspended in assay buffer at a batch-dependent optimized concentration (e.g. hGCGR cells at 2×10^5 cells/ml, hGLP-1R and hGIPR cells at 1×10^5 cells/ml).
# (§3) To this, 5 μL cell suspension is added and the plates incubated at room temperature for 30 minutes.
# (§4) cAMP levels are measured using a commercially available cAMP dynamic 2 HTRF kit (Cisbio, Cat #62AM4PEJ), following the two step protocol as per manufacturer's recommendations. In brief; anti-cAMP cryptate (donor fluorophore) and cAMP-d2 (acceptor fluorophore) are made up separately by diluting each 1/20 in conjugate & lysis buffer provided in the kit. 5 μL anti-cAMP cryptate is added to wells of the assay plate, and 5 μL cAMP-d2 is added to wells except non-specific binding (NSB) wells, to which conjugate and lysis buffer are added. […] EC50 values of the synthetic peptides determined in cAMP assays are then determined.
# (§5) Data is transformed to % Delta F as described in the manufacturer's guidelines and analyzed by 4-parameter logistic fit to determine EC50 values. […] To compare the balance of activities at the GLP-1R and GCGR between different peptides and across different conditions, these can be correlated, where the EC50's are related to those of comparator peptides.
# [2] = target: T2, human glucose-dependent insulinotropic peptide receptor (GIPR) (Homo sapiens, UniProt P48546); experiment: cAMP assay, human GIPR cells; conditions: cAMP assay
# T2 construct: expressed in transfected cells
# T2 sequence (P48546 22-466): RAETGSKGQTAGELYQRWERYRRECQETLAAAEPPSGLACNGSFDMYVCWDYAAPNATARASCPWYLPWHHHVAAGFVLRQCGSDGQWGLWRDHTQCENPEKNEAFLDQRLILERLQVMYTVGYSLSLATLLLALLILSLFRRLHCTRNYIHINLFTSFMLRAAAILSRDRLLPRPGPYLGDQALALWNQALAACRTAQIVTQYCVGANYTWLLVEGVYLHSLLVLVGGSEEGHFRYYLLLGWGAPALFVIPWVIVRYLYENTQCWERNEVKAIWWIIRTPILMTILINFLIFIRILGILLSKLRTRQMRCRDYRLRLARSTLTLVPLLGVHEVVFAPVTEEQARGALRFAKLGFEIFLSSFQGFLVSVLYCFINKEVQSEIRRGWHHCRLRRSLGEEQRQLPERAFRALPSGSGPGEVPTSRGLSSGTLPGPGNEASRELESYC
# Procedure: as §1, §2, §3, §4, §5
# [3] = target: T3, human GLP-1 receptor (GLP-1R) (Homo sapiens, UniProt P43220); experiment: cAMP assay, human GLP-1R cells; conditions: bis-lipidated peptides
# T3 construct: expressed in transfected cells
# Procedure: as §1, §2, §3, §4, §5
# [4] = first determination (n1), read-out: Primary assay EC50 Gluc-R (n1)
# [5] = second determination (n2), read-out: Primary assay EC50 Gluc-R (n2)
# [6] = first determination (n1), read-out: Primary assay EC50 GIP-R (n1)
# [7] = second determination (n2), read-out: Primary assay EC50 GIP-R (n2)
# [8] = mean of n1 and n2, read-out: Primary assay EC50 Mean pM GLP-1R
# [9] = replicate n1, read-out: Primary assay EC50 GLP-1R n1
# [10] = replicate n2, read-out: Primary assay EC50 GLP-1R n2
# T3 sequence (P43220 24-463): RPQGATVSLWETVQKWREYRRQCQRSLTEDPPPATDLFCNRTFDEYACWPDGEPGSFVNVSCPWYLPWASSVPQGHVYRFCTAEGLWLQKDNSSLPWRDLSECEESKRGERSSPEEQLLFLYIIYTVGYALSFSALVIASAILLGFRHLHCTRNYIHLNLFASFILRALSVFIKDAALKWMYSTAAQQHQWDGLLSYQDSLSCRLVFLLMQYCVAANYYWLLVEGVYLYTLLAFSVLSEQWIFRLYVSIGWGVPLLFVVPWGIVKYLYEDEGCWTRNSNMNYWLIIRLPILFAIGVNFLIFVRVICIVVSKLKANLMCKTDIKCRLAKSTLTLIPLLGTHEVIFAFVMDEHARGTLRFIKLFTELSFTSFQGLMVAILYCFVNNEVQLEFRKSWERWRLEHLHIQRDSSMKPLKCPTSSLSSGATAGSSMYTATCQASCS
# T1 sequence (P47871 26-477): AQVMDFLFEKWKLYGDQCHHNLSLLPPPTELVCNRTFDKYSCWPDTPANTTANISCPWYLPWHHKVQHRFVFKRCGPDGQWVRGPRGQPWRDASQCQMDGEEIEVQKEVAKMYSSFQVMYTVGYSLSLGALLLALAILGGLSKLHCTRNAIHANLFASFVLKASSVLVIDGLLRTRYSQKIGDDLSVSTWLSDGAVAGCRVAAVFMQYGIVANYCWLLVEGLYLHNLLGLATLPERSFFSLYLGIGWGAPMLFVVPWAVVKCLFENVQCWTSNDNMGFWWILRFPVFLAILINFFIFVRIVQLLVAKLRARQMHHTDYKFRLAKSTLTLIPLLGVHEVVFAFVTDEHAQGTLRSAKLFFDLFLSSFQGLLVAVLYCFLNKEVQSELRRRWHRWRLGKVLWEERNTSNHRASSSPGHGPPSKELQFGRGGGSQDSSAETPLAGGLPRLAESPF
"EC50 [1, 4] [nM]","EC50 [1, 5] [nM]","EC50 [2, 6] [nM]","EC50 [2, 7] [nM]","EC50 [3, 8] [pM]","EC50 [3, 9] [pM]","EC50 [3, 10] [pM]",SMILES
≥ 340,≥ 340,≥ 340,≥ 340,–,–,–,CC[C@H](C)[C@H](NC(=O)[C@H](Cc1ccccc1)NC(=O)[C@H](CCC(=O)O)NC(=O)[C@H](CCCCN)NC(=O)[C@H](C)NC(=O)[C@H](C)NC(=O)[C@H](CCC(N)=O)NC(=O)CNC(=O)[C@H](CCC(=O)O)NC(=O)[C@H](CC(C)C)NC(=O)[C@H](Cc1ccc(O)cc1)NC(=O)[C@H](CO)NC(=O)[C@](C)(CO)NC(=O)[C@@H](NC(=O)[C@H](CC(=O)O)NC(=O)[C@H](CO)NC(=O)[C@@H](NC(=O)[C@H](Cc1ccccc1)NC(=O)[C@@H](NC(=O)CNC(=O)[C@H](CCC(=O)O)NC(=O)C(C)(C)NC(=O)[C@@H](N)Cc1c[nH]cn1)[C@@H](C)O)[C@@H](C)O)C(C)C)C(=O)N[C@@H](C)C(=O)N[C@@H](Cc1c[nH]c2ccccc12)C(=O)N[C@@H](CC(C)C)C(=O)N[C@H](C(=O)N[C@@H](CCCCN)C(=O)NCC(=O)N[C@@H](CCCNC(=N)N)C(N)=O)C(C)C [compound 21]
–,–,–,–,7.5,9.46,5.57,CCCCCCCCCCCC(=O)N[C@@H](CCC(=O)NCCOCCOCC(=O)NCCOCCOCC(=O)NCCCC[C@H](NC(=O)[C@H](CC(=O)O)NC(=O)[C@H](CO)NC(=O)[C@@H](NC(=O)[C@](C)(Cc1ccccc1)NC(=O)[C@H](CO)NC(=O)CNC(=O)[C@H](CCC(=O)O)NC(=O)C(C)(C)NC(=O)[C@@H](N)Cc1c[nH]cn1)[C@@H](C)O)C(=O)N[C@@H](CO)C(=O)N[C@@H](CO)C(=O)N[C@@H](Cc1ccc(O)cc1)C(=O)N[C@@H](CC(C)C)C(=O)N[C@@H](CCC(=O)O)C(=O)NCC(=O)N[C@@H](CCC(=O)O)C(=O)N[C@@H](C)C(=O)N[C@@H](C)C(=O)N[C@@](C)(CCCCN)C(=O)N[C@@H](CCC(=O)O)C(=O)N[C@@H](Cc1ccccc1)C(=O)N[C@H](C(=O)N[C@@H](CCCCNC(=O)COCCOCCNC(=O)COCCOCCNC(=O)CC[C@H](NC(=O)CCCCCCCCCCC)C(=O)O)C(=O)N[C@@H](Cc1c[nH]c2ccccc12)C(=O)N[C@H](C(=O)N[C@H](C(=O)N[C@@H](CCC(=O)O)C(=O)NCC(=O)NCC(N)=O)C(C)C)C(C)C)[C@@H](C)CC)C(=O)O [compound 256] (H-H[Aib]EGS[αMeF]TSDK([AEEA-AEEA-γGlu-Lauroyl])SSYLEGEAA[αMeK]EFIK([AEEA-AEEA-γGlu-Lauroyl])WVVEGG-NH2)
–,–,–,–,92.3,59.6,125,CCCCCCCCCCCC(=O)N[C@@H](CCC(=O)NCCOCCOCC(=O)NCCOCCOCC(=O)NCCCC[C@H](NC(=O)[C@H](CC(=O)O)NC(=O)[C@H](CO)NC(=O)[C@@H](NC(=O)[C@](C)(Cc1ccccc1)NC(=O)[C@H](CO)NC(=O)CNC(=O)[C@H](CCC(=O)O)NC(=O)C(C)(C)NC(=O)[C@@H](N)Cc1c[nH]cn1)[C@@H](C)O)C(=O)N[C@@H](CO)C(=O)N[C@@H](CO)C(=O)N[C@@H](Cc1ccc(O)cc1)C(=O)N[C@@H](CC(C)C)C(=O)N[C@@H](CCC(=O)O)C(=O)NCC(=O)N[C@@H](CCC(=O)O)C(=O)N[C@@H](C)C(=O)N[C@@H](C)C(=O)N[C@@](C)(CCCCN)C(=O)N[C@@H](CCC(=O)O)C(=O)N[C@@H](Cc1ccccc1)C(=O)N[C@H](C(=O)N[C@@H](C)C(=O)N[C@@H](Cc1c[nH]c2ccccc12)C(=O)N[C@@H](CCCCNC(=O)COCCOCCNC(=O)COCCOCCNC(=O)CC[C@H](NC(=O)CCCCCCCCCCC)C(=O)O)C(=O)N[C@H](C(=O)N[C@@H](CCC(=O)O)C(=O)NCC(=O)NCC(N)=O)C(C)C)[C@@H](C)CC)C(=O)O [compound 258] (H-H[Aib]EGS[αMeF]TSDK([AEEA-AEEA-γGlu-Lauroyl])SSYLEGEAA[αMeK]EFIAWK([AEEA-AEEA-γGlu-Lauroyl])VEGG-NH2; N-terminus assumed)

# More lines, now with the values behind:
SMILES,"EC50 [1, 4] [nM]","EC50 [1, 5] [nM]","EC50 [2, 6] [nM]","EC50 [2, 7] [nM]","EC50 [3, 8] [pM]","EC50 [3, 9] [pM]","EC50 [3, 10] [pM]"
CC[C@H](C)[C@H](NC(=O)[C@](C)(Cc1ccccc1)NC(=O)[C@H](CCC(=O)O)NC(=O)[C@](C)(CCCCN)NC(=O)[C@H](C)NC(=O)[C@H](C)NC(=O)[C@H](CCC(=O)O)NC(=O)CNC(=O)[C@H](CCC(=O)O)NC(=O)[C@H](CC(C)C)NC(=O)[C@](C)(Cc1ccccc1)NC(=O)[C@H](CO)NC(=O)[C@H](CO)NC(=O)[C@@H](NC(=O)[C@H](CCC(=O)O)NC(=O)[C@H](CO)NC(=O)[C@H](CO)NC(=O)[C@](C)(Cc1ccccc1)NC(=O)[C@H](CO)NC(=O)CNC(=O)[C@H](CCC(=O)O)NC(=O)C(C)(C)NC(=O)[C@@H](N)Cc1c[nH]cn1)C(C)C)C(=O)N[C@@H](C)C(=O)N[C@@](C)(Cc1ccccc1)C(=O)N[C@H](C(=O)N[C@H](C(=O)N[C@@](C)(CCCCN)C(=O)NCC(=O)NCC(N)=O)C(C)C)C(C)C [compound 9] (H-H[Aib]EGS[αMeF]SSEVSS[αMeF]LEGEAA[αMeK]E[αMeF]IA[αMeF]VV[αMeK]GG-NH2; N-terminus assumed),≥ 29,≥ 29,≥ 29,≥ 29,–,–,–
CC[C@H](C)[C@H](NC(=O)[C@](C)(Cc1ccccc1)NC(=O)[C@H](CCC(=O)O)NC(=O)[C@](C)(CCCCN)NC(=O)[C@H](C)NC(=O)[C@H](C)NC(=O)[C@H](CCC(=O)O)NC(=O)CNC(=O)[C@H](CCC(=O)O)NC(=O)[C@@H](NC(=O)[C@](C)(Cc1ccccc1)NC(=O)[C@H](CO)NC(=O)[C@H](CO)NC(=O)[C@@H](NC(=O)[C@H](CC(=O)O)NC(=O)[C@H](CO)NC(=O)[C@@H](NC(=O)[C@](C)(Cc1ccccc1)NC(=O)[C@H](CO)NC(=O)CNC(=O)[C@H](CCC(=O)O)NC(=O)C(C)(C)NC(=O)[C@@H](N)Cc1c[nH]cn1)[C@@H](C)O)C(C)C)C(C)C)C(=O)N[C@@H](C)C(=O)N[C@@](C)(Cc1ccccc1)C(=O)N[C@H](C(=O)N[C@H](C(=O)N[C@@](C)(CCCCN)C(=O)NCC(=O)NCC(N)=O)C(C)C)C(C)C [compound 10] (H-H[Aib]EGS[αMeF]TSDVSS[αMeF]VEGEAA[αMeK]E[αMeF]IA[αMeF]VV[αMeK]GG-NH2; N-terminus assumed),≥ 100,≥ 100,≥ 100,≥ 100,–,–,–
CC(C)[C@H](NC(=O)[C@H](CCC(=O)O)NC(=O)[C@H](CO)NC(=O)[C@H](CO)NC(=O)[C@](C)(Cc1ccccc1)NC(=O)[C@H](CO)NC(=O)CNC(=O)[C@H](CCC(=O)O)NC(=O)C(C)(C)NC(=O)[C@@H](N)Cc1c[nH]cn1)C(=O)N[C@@H](CO)C(=O)N[C@@H](CO)C(=O)N[C@@](C)(Cc1ccccc1)C(=O)N[C@H](C(=O)N[C@@H](CCC(=O)O)C(=O)NCC(=O)N[C@@H](CCC(=O)O)C(=O)N[C@@H](C)C(=O)N[C@@H](C)C(=O)N[C@@](C)(CCCCN)C(=O)N[C@@H](CCC(=O)O)C(=O)N[C@@](C)(Cc1ccccc1)C(=O)N[C@H](C(=O)N[C@@H](C)C(=O)N[C@@](C)(Cc1ccccc1)C(=O)N[C@H](C(=O)N[C@H](C(=O)N[C@@](C)(CCCCN)C(=O)NCC(=O)NCC(N)=O)C(C)C)C(C)C)C(C)C)C(C)C [compound 12] (H-H[Aib]EGS[αMeF]SSEVSS[αMeF]VEGEAA[αMeK]E[αMeF]VA[αMeF]VV[αMeK]GG-NH2),10,13,45,45,–,–,–
CC[C@H](C)[C@H](NC(=O)[C@H](Cc1ccccc1)NC(=O)[C@H](CCC(=O)O)NC(=O)[C@H](CCCCN)NC(=O)[C@H](C)NC(=O)[C@H](C)NC(=O)[C@H](CCC(N)=O)NC(=O)CNC(=O)[C@H](CCC(=O)O)NC(=O)[C@H](CC(C)C)NC(=O)[C@H](Cc1ccc(O)cc1)NC(=O)[C@H](CO)NC(=O)[C@H](CO)NC(=O)[C@@H](NC(=O)[C@H](CC(=O)O)NC(=O)[C@](C)(CO)NC(=O)[C@@H](NC(=O)[C@H](Cc1ccccc1)NC(=O)[C@@H](NC(=O)CNC(=O)[C@H](CCC(=O)O)NC(=O)C(C)(C)NC(=O)[C@@H](N)Cc1c[nH]cn1)[C@@H](C)O)[C@@H](C)O)C(C)C)C(=O)N[C@@H](C)C(=O)N[C@@H](Cc1c[nH]c2ccccc12)C(=O)N[C@@H](CC(C)C)C(=O)N[C@H](C(=O)N[C@@H](CCCCN)C(=O)NCC(=O)N[C@@H](CCCNC(=N)N)C(N)=O)C(C)C [compound 19],≥ 130,≥ 130,≥ 130,≥ 130,–,–,–
